≈ marks a conversion by molar mass, not a printed value.
Columns and labels:
[1] = Antioxidation activity (hydroperoxide formed by oxidation of linoleic acid, HPLC); settings: 200 ppm, 50° C., light-shielded
Protocol: Ten ml of about one % linoleic acid in ethanol solution, 10 ml of 50 mM phosphate buffer and 5 ml water were mixed, and 5 ml aliquots of the mixture were distributed to 5 ml-flasks. […] A half ml of solution was sampled from each flask at a prescribed time interval, and the sampled solution was subjected to high-performance liquid chromatography (HPLC) to analyze the amount of hydroperoxide which was formed as a result of the oxidation of linoleic acid. The conditions used in the analysis of hydroperoxide were as follows:
Apparatus : WATERS MODEL M-6000A, a pump system commercialized by Japan Waters Ltd., Tokyo, Japan;
Column : ODS-M column, a column commercialized by Shimadzu Techno-Research,Inc., Kyoto, Japan;
Column temperature : 35° C.
Eluate : water:methanol:acetic acid =75:25:0.1
Detection wave length: at 235 nm

[2] = Solubility in solvent; format: physicochemical; settings: 25° C. water (pH 7)

Structure (SMILES) | Relative intensity determined with the peak area corresponding to hydroperoxide, sampling day 0 ([1]; day 0, Control 0.3) | Relative intensity determined with the peak area corresponding to hydroperoxide, sampling day 4 ([1]; day 4, Control 1.5) | Relative intensity determined with the peak area corresponding to hydroperoxide, sampling day 7 ([1]; day 7, Control 5.3) | Relative intensity determined with the peak area corresponding to hydroperoxide, sampling day 8 ([1]; day 8, Control 7.1) | solubility [2] [µg/mL]
Cc1c(C)c2c(c(C)c1O)CCC(C)(CCCC(C)CCCC(C)CCCC(C)C)O2 (racemic) [dl-α-Tocopherol] | 0.3 | 1.1 | 4.5 | 6.0 | 
O=c1c(O)c(-c2ccc(O)c(O)c2)oc2cc(O)cc(O)c12 [quercetin] |  |  |  |  | ~2 (≈ 6.62 µM)

Reference: patent US5565435A (Kabushiki Kaisha Hayashibara Seibutsu Kagaku Kenkyujo, priority 1991, dated 1996)
